# Measurements from ChEMBL document CHEMBL4346660, “Cryptolepine and aromathecin based mimics as potent G-quadruplex-binding, DNA-cleavage and anticancer agents: Design, synthesis and DNA targeting-induced apoptosis” (Eur J Med Chem, 2019).
# pIC50: −log10 of the molar value. Active and inactive are the calls of the source. The rule behind the calls is not given here.
# Key:
# MGC-803 [1] = test: Antiproliferative activity against human MGC803 cells assessed as reduction in cell viability incubated for 48 hrs by MTT assay; assay type: functional, cell-based; settings: MGC-803, 48 h
# [2] = target: T1, DNA topoisomerase I (Bos taurus) (UniProt F1MN93); test: Inhibition of calf thymus topoisomerase1-mediated relaxation of supercoiled pBR322 DNA at 5 uM measured after 30 mins by ethidium bromide staining based agarose gel electrophoresis
# T1 sequence (whole entry): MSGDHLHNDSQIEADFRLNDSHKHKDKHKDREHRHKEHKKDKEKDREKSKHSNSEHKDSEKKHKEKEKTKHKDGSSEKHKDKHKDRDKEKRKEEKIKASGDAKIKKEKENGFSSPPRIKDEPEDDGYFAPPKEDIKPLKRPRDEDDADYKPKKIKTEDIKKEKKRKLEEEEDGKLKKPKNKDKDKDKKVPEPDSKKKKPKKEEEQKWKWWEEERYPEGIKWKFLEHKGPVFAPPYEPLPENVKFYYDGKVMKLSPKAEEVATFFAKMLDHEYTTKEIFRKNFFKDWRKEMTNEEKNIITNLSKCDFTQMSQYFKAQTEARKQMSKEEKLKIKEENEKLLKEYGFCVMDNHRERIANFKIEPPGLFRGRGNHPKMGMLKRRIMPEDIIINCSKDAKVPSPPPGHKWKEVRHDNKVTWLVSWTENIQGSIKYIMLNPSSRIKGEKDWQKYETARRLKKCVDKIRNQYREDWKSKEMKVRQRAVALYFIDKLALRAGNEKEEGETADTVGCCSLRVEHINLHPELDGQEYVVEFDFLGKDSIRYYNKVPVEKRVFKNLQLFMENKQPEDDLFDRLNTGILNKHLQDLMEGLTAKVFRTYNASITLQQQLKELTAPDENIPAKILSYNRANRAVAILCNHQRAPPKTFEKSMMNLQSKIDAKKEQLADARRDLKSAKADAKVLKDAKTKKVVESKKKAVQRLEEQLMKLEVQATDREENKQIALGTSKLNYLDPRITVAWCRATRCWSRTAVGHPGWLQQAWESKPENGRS
# MGC-803 [3] = test: Cell cycle arrest in human MGC803 cells assessed as accumulation of cells at S phase at 2.5 uM incubated for 48 hrs by propidium iodide staining based flow cytometry (reference value: 32.97%); assay type: functional
# MGC-803 [4] = test: Induction of apoptosis in human MGC803 cells assessed as increase in Apaf-1 expression at 0.5 to 2.5 uM after 24 hrs by Western blot analysis; assay type: functional, cell-based
smiles,measurement,setting,value
CN(C)CCCNc1c2c(nc3ccc(F)cc13)-c1ccccc1C2,pIC50,MGC-803 [1],6.01
same,inhibition,[2],Active
same,Activity,MGC-803 [3],59.44%
same,Activity,MGC-803 [4],Active
